Experimental data as given in EPA's ToxValDB 9.5 (doi:10.2903/j.efsa.2010.1779).
Values after ≈ are worked out from the molar mass of the structure shown.

Experiments:
[1] = system: Neomysis kadiakensis; conditions: acute; duration: 96 hours; mortality
[2] = system: Rattus norvegicus
[3] = system: Oncorhynchus mykiss
[4] = system: Apis mellifera; conditions: acute; duration: 48 hours; oral; unspecified; mortality
[5] = system: Anas platyrhynchos
[6] = system: Tagia sp.; conditions: acute; duration: 14 days; mortality
[7] = system: Oryctolagus sp.; conditions: developmental; development
[8] = system: Daphnia magna
[9] = system: Mus musculus; conditions: chronic; duration: 18 months; histopathology: neoplastic
[10] = system: Bibionidae; conditions: chronic/long-term
[11] = system: Colinus virginianus
[12] = system: Adalia sp.; assay: LR50; higher = less toxic; conditions: not reported; mortality
[13] = system: Typhlodromus pyri; assay: LR50; higher = less toxic; conditions: acute; duration: 14 days; mortality

## CCOC(=O)NCCOc1ccc(Oc2ccccc2)cc1 [Fenoxycarb]
[1]
  LC50: 0.35 µg/mL (≈ 1.16 µM)
[2]; acute, oral, mortality
  LD50: > 10000 mg/kg-day
[2]; chronic
  NOAEC: 40 mg/kg-day
[2]; subchronic, duration: 13 weeks, oral, organ weight
  NOAEL: 9.7 mg/kg-day
[3]; acute, duration: 96 hours, mortality
  LC50: 0.66 µg/mL (≈ 2.19 µM)
[3]; chronic/long-term, duration: 60 days, body weight
  NOEC: 0.048 mg/L
[4]
  LD50: > 204 µg/piece
[5]; acute, oral, unspecified, mortality
  LD50: > 3000 mg/kg-day
[5]; reproductive
  NOEC: 17.7 mg/kg-day
[5]; short-term, oral, feed, mortality
  LC50: > 5880 mg/kg-day
[6]
  LC50: > 850 mg/kg
[7]
  NOAEL: 200 mg/kg-day
[8]; acute, duration: 48 hours, mortality
  LC50: 0.5 µg/mL (≈ 1.66 µM)
[8]; chronic/long-term, duration: 21 days, reproduction
  NOEC: 1.6e-06 mg/L
[9]
  LOAEL: 5.3 mg/kg-day
[10]
  NOEC: 0.0028 mg/kg
[10]; duration: 28 days
  NOEC: 0.00075 mg/L
[11]; acute, oral, diet, mortality
  LC50: 1360 mg/kg-day
[11]; acute, oral, mortality
  LD50: > 7000 mg/kg-day
[11]; reproduction developmental
  NOEC: 35.9 mg/kg-day
[12]
  LR50: > 2.5 g/ha
[13]
  LR50: > 463 g/ha
